Data reported in patent publication US20060173015A1, “Cyclohexyldiamines as selective alpha 1a/1d adrenoreceptor antagonists for the treatment of benign prostatic hypertrophy and lower urinary tract symptoms” (priority 2004, published 2006).

Assays:
α1b-AR = biological target: T1, α1b-AR (Homo sapiens, UniProt P35368); experiment: α1-Adrenergic receptor radio-ligand (125I-HEAT) binding assay, α1b subtype; conditions: for Ki: Receptor Binding, Ki α1b-AR, COS-7 cell membranes, 125I-HEAT
T1 sequence (P35368 1-520): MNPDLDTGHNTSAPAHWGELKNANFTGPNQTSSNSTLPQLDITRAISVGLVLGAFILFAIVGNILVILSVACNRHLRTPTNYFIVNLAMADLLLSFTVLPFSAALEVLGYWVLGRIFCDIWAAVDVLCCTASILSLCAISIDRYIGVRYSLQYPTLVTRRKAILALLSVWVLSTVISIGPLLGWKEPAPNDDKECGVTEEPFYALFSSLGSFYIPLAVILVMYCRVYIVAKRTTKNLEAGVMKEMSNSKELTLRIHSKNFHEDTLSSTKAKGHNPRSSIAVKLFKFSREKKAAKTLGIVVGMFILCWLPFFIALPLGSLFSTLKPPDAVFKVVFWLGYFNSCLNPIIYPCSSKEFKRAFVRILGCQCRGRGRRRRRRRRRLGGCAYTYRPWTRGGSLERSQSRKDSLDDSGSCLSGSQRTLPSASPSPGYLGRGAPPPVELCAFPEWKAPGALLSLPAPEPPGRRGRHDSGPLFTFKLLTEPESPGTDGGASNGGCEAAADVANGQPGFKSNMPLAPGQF

α1d-AR = biological target: T2, α1d-AR (Homo sapiens, UniProt P25100); experiment: α1-Adrenergic receptor radio-ligand (125I-HEAT) binding assay, α1d subtype; conditions: for Ki: COS-7 cell membranes, 125I-HEAT, read-out: Receptor Binding, Ki α1d-AR
T2 construct: expressed in transfected cells; host or cells: COS-7
T2 sequence (P25100 1-572): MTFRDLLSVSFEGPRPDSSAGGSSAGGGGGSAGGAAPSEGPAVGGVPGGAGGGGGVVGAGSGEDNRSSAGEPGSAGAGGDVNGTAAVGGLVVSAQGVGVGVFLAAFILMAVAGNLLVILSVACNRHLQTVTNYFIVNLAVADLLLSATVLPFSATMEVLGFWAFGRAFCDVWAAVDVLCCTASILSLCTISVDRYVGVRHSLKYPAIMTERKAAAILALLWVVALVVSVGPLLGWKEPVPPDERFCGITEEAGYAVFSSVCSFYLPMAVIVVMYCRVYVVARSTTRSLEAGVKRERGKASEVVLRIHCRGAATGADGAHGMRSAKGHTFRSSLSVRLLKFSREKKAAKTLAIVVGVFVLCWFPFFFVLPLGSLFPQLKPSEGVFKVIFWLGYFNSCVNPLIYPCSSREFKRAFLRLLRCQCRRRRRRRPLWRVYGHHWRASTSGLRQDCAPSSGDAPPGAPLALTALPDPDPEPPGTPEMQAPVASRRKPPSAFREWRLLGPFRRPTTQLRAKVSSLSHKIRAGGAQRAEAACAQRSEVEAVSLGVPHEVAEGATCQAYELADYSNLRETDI

α1a-AR = biological target: T3, α1a-AR (Homo sapiens, UniProt P35348); experiment: α1-Adrenergic receptor radio-ligand (125I-HEAT) binding assay, α1a subtype; conditions: for Ki: COS-7 cell membranes, 125I-HEAT
T3 construct: expressed in transfected cells; host or cells: COS-7
T3 sequence (P35348 1-466): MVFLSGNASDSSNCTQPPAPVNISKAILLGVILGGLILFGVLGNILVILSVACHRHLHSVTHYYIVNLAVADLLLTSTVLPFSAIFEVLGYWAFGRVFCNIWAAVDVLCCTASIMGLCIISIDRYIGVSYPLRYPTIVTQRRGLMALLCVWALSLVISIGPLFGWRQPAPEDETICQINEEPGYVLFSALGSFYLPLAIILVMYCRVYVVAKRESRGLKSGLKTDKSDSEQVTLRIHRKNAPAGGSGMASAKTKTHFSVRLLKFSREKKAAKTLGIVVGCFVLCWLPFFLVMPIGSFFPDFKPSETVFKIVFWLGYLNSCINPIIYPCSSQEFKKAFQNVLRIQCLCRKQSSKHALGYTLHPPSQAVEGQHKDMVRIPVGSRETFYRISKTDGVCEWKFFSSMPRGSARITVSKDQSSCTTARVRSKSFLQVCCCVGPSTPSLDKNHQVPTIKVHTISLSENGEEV
Experimental: α1-Adrenergic Receptor Binding Assay: Preparation of COS Cell Membranes
Membranes were prepared from COS-7 cells that had been transfected with one of the three α1-AR subtypes by the following method. COS cells from ten 100 mm tissue culture plates were scraped into 5 mL TE (50 mM Tris-HCl, 5 mM EDTA, pH 7.4). The cell suspension was disrupted with a Brinkman Polytron, setting 8, for 10 sec. The disrupted cells were centrifuged at 1000×g for 10 min at 4° C. Supernatants were centrifuged at 34,500×g for 20 min at 4° C. The membrane pellets were suspended in 2 mL TNE (50 mM Tris-HCl, 5 mM EDTA, 150 mM NaCl, pH7.4). An aliquot of the membrane suspension was stored at −70° C. until use. The protein concentration was determined using the BioRad DC protein assay kit following membrane solubilization with Triton X-100.
Radio-Ligand Binding Assay
Triplicate determinations of radio-ligand binding in the presence of increasing: concentrations of testing compound were made. The reagents were added to 96-well polypropylene plate wells using the Biomek 1000 robot (Beckman Instruments). Each assay well contained 140 μl TNE, 25 μL ^125I-HEAT (specific activity 2200 Ci/mmol, Dupont-NEN, 50 pM final), 10 μL testing compound dissolved in DMSO (1 pM to 10 μM in half-log increments, final), and 25 μL appropriate α1-AR membrane subtype suspension in TNE (0.5 ng/μL for the α1a and α1b subtypes and 13 ng/μL for the α1d subtype). The plate was incubated at rt for 1 hr. The contents of the wells were filtered through a GF/C membrane Unifilter plate (Packard Instruments) using the Packard Filtermate cell harvester. The filter plates were dried in a vacuum oven for 30 min at 40° C. 25 μL Microscint 20 liquid scintillation fluid (Packard Instuments) was added to each well. The radioactive content was analyzed in the TopCount microplate scintillation counter (Packard Instruments).

Structure (SMILES) | Ki (α1b-AR) | Ki (α1d-AR) | Ki (α1a-AR) | Kd (α1b-AR; read-out: Kd used in the Ki calculation, α1b-AR, radio-ligand) | Kd (α1d-AR; radio-ligand, read-out: Kd used in the Ki calculation, α1d-AR) | Kd (α1a-AR; radio-ligand, read-out: Kd used in the Ki calculation, α1a-AR)
COc1ccncc1S(=O)(=O)N[C@H]1CC[C@H](N2CCN(c3ccccc3OC(C)C)CC2)CC1 [Cpd 65, 4-Methoxy-pyridine-3-sulfonic acid N-trans-{4-[4-(2-isopropoxy-phenyl)-piperazin-1-yl]-cyclohexyl}-amide] | 268 nM | 76 nM | 13.4 nM |  |  | 
CC(C)Oc1ccccc1N1CCN([C@H]2CC[C@H](NS(=O)(=O)c3cccc(F)c3)CC2)CC1 [Cpd 50, 3-Fluoro-N-trans-{4-[4-(2-isopropoxy-phenyl)-piperazin-1-yl]-cyclohexyl}-benzenesulfonamide] | 545 nM | 24.5 nM | 0.73 nM |  |  | 
COc1ccc(S(=O)(=O)N[C@H]2CC[C@@H](N3CCN(c4ccc(F)cc4OCC(F)(F)F)CC3)CC2)cc1OC [Cpd 75, N-cis-(4-{4-[4-Fluoro-2-(2,2,2-trifluoro-ethoxy)-phenyl]-piperazin-1-yl}-cyclohexyl)-3,4-dimethoxy-benzenesulfonamide] | 176 nM | 5.2 nM | 13.9 nM |  |  | 
CC(C)Oc1ccccc1N1CCN([C@H]2CC[C@H](NS(=O)(=O)c3cccnc3)CC2)CC1 [Cpd 64, Pyridine-3-sulfonic acid N-trans-{4-[4-(2-isopropoxy-phenyl)-piperazin-1-yl]-cyclohexyl}-amide] | 192 nM | 5.5 nM | 5.8 nM |  |  | 
CC(C)Oc1ccccc1N1CCN([C@H]2CC[C@H](NS(=O)(=O)c3ccc(Cl)cc3Cl)CC2)CC1 [Cpd 29, 2,4-Dichloro-N-trans-{4-[4-(2-isopropoxy-phenyl)-piperazine-1-yl]-cyclohexyl}-benzenesulfonamide] | 596 nM | 8.6 nM | 1.6 nM |  |  | 
COc1ccc(C(F)(F)F)cc1S(=O)(=O)N[C@H]1CC[C@H](N2CCN(c3ccccc3OC(C)C)CC2)CC1 [Cpd 48, N-trans-{4-[4-(2-Isopropoxy-phenyl)-piperazin-1-yl]-cyclohexyl}-2-methoxy-5-trifluoromethyl-benzenesulfonamide] | 258 nM | 1.5 nM | 24.5 nM |  |  | 
CC(C)Oc1ccccc1N1CCN([C@H]2CC[C@H](NS(=O)(=O)c3ccc(F)c(Cl)c3)CC2)CC1 [Cpd 42, 3-Chloro-4-fluoro-N-trans-{4-[4-(2-isopropoxy-phenyl)-piperazin-1-yl]-cyclohexyl}-benzenesulfonamide] | 2300 nM | 72 nM | 6.6 nM |  |  | 
O=C1c2ccccc2CCC1CNCCc1ccc(O)c(I)c1 (stereo not drawn) [125I-HEAT, reference compound] |  |  |  | 79 nM | 50 nM | 81.5 nM
CC(C)Oc1ccccc1N1CCN([C@H]2CC[C@H](NS(=O)(=O)c3ccccc3)CC2)CC1 [Cpd 53] | 487 nM | 55 nM | 2.7 nM |  |  | 
O=S(=O)(N[C@H]1CC[C@H](N2CCN(c3ccc(F)cc3OCC(F)(F)F)CC2)CC1)c1cc(Cl)ccc1F [Cpd 82, 5-Chloro-2-fluoro-N-trans-(4-{4-[4-fluoro-2-(2,2,2-trifluoro-ethoxy)-phenyl]-piperazin-1-yl}-cyclohexyl)-benzenesulfonamide] | 442 nM | 240 nM | 52 nM |  |  | 

Other lines, results leading:

Ki (α1b-AR) | Ki (α1d-AR) | Ki (α1a-AR) | Kd (α1b-AR; read-out: Kd used in the Ki calculation, α1b-AR, radio-ligand) | Kd (α1d-AR; radio-ligand, read-out: Kd used in the Ki calculation, α1d-AR) | Kd (α1a-AR; radio-ligand, read-out: Kd used in the Ki calculation, α1a-AR) | Structure (SMILES)
66 nM | 0.4 nM | 3.8 nM |  |  |  | CC(C)Oc1ccccc1N1CCN([C@H]2CC[C@@H](NS(=O)(=O)c3cc(Cl)ccc3F)CC2)CC1 [Cpd 12, 5-Chloro-2-fluoro-N-cis-{4-[4-(2-isopropoxy-phenyl)-piperazin-1-yl]-cyclohexyl}-benzenesulfonamide]
150 nM | 4.8 nM | 5.6 nM |  |  |  | CC(C)Oc1ccccc1N1CCN([C@H]2CC[C@@H](NS(=O)(=O)c3ccc(F)cc3)CC2)CC1 [Cpd 10, 4-Fluoro-N-cis-{4-[4-(2-isopropoxy-phenyl)-piperazin-1-yl]-cyclohexyl}-benzenesulfonamide]
109 nM | 6.7 nM | 23 nM |  |  |  | CCN([C@H]1CC[C@H](N2CCN(c3ccccc3OC(C)C)CC2)CC1)S(=O)(=O)c1ccc(OC)c(OC)c1 [Cpd 68, N-Ethyl-N-trans-{4-[4-(2-isopropoxy-phenyl)-piperazin-1-yl]-cyclohexyl}-3,4-dimethoxy-benzenesulfonamide]
111 nM | 5.2 nM | 13.7 nM |  |  |  | CC(C)Oc1ccccc1N1CCN([C@H]2CC[C@@H](NS(=O)(=O)c3ccccc3)CC2)CC1 [Cpd 25]
173 nM | 22 nM | 1 nM |  |  |  | COc1ccc([N+](=O)[O-])cc1S(=O)(=O)N[C@H]1CC[C@H](N2CCN(c3ccccc3OC(C)C)CC2)CC1 [Cpd 47, N-trans-{4-[4-(2-Isopropoxy-phenyl)-piperazin-1-yl]-cyclohexyl}-2-methoxy-5-nitro-benzenesulfonamide]
141 nM | 3.8 nM | 4.6 nM |  |  |  | COc1ccc(C)cc1S(=O)(=O)N[C@H]1CC[C@@H](N2CCN(c3ccccc3OC(C)C)CC2)CC1 [Cpd 4, N-cis-{4-[4-(2-Isopropoxy-phenyl)-piperazin-1-yl]-cyclohexyl}-2-methoxy-5-methyl-benzenesulfonamide]
108 nM | 3.3 nM | 3.5 nM |  |  |  | CC(C)Oc1ccccc1N1CCN([C@H]2CC[C@@H](NS(=O)(=O)c3cccc(F)c3)CC2)CC1 [Cpd 22, 3-Fluoro-N-cis-{4-[4-(2-isopropoxy-phenyl)-piperazin-1-yl]-cyclohexyl}-benzenesulfonamide]
118 nM | 2.8 nM | 12.5 nM |  |  |  | CC(C)Oc1ccccc1N1CCN([C@H]2CC[C@@H](NS(=O)(=O)c3ccccc3S(C)(=O)=O)CC2)CC1 [Cpd 5, N-cis-{4-[4-(2-Isopropoxy-phenyl)-piperazin-1-yl]-cyclohexyl}-2-methanesulfonyl-benzenesulfonamide]
116 nM | 4.3 nM | 8.3 nM |  |  |  | CC(C)Oc1ccccc1N1CCN([C@H]2CC[C@@H](NS(=O)(=O)c3cccc4cccnc34)CC2)CC1 [Cpd 58, Quinoline-8-sulfonic acid N-cis-{4-[4-(2-isopropoxy-phenyl)-piperazin-1-yl]-cyclohexyl}-amide]
